Measurements from patent publication US11083725B2 (priority 2014, dated 2021).

Tested on: NHBE cells
Assay: Biolog metabolic array: substrate use by NHBE cells with or without CA09 infection
Format: cell-based, human
Conditions: for Substrate use, 590 nm absorbance normalized to zero hour, 1 hr: Biolog PMM2, 1 hr; for Substrate use, 590 nm absorbance normalized to zero hour, 5 hr: Biolog PMM2, 5 hr; for Substrate use, 590 nm absorbance normalized to zero hour, 7 hr: Biolog PMM2, 7 hr
[1] = Control (uninfected) NHBE cells
[2] = Virus (CA09-infected, MOI 1) NHBE cells
[3] = Virus: CA09-infected NHBE cells, MOI 1, Biolog PMM2
[4] = Virus (CA09-infected NHBE cells, MOI 1)
[5] = Virus (CA09, MOI 1) infected NHBE cells

With O=C(CO)[C@@H](O)[C@@H](O)[C@H](O)CO [D-Tagatose] the “590 nm absorbance normalized to zero hour (substrate use), 1 hr” value [1] was 1.07, the “590 nm absorbance normalized to zero hour (substrate use), 2 hr” value [1] was 1.01 and the “590 nm absorbance normalized to zero hour (substrate use), 3 hr” value [1] was 0.88. The “590 nm absorbance normalized to zero hour (substrate use), 4 hr” value [1] was 0.28, the “590 nm absorbance normalized to zero hour (substrate use), 6 hr” value (from here on “590 nm absorbance normalized … 6 hr”) [1] was 0.49 and the “590 nm absorbance normalized to zero hour (substrate use), 8 hr” value (“590 nm absorbance normalized … 8 hr” below) [1] was 0.34. For the same compound, the “590 nm absorbance normalized to zero hour (substrate use), 9 hr” value (shortened to “590 nm absorbance normalized … 9 hr”) [1] was 0.36, the “590 nm absorbance normalized to zero hour (substrate use), 10 hr” value (“590 nm absorbance normalized … 10 hr” for short) [1] was 0.37 and the “590 nm absorbance normalized to zero hour (substrate use), 11 hr” value [1] was 0.39. For the same compound, the “Substrate use, 590 nm absorbance normalized to zero hour, 1 hr” value [1] was 1.07, the “Substrate use, 590 nm absorbance normalized to zero hour, 5 hr” value [1] was 0.29 and the “Substrate use, 590 nm absorbance normalized to zero hour, 7 hr” value [1] was 0.32. For the same compound, the “590 nm absorbance normalized to zero hour (substrate use), 1 hr” value [2] was 0.17, the “590 nm absorbance normalized to zero hour (substrate use), 2 hr” value [2] was 0.24 and the “590 nm absorbance normalized to zero hour (substrate use), 3 hr” value [2] was 0.28. For the same compound, the “590 nm absorbance normalized to zero hour (substrate use), 4 hr” value [2] was 0.30, the “590 nm absorbance normalized to zero hour (substrate use), 5 hr” value [2] was 0.36 and the “590 nm absorbance normalized … 6 hr” value [2] was 0.39. For the same compound, the “590 nm absorbance normalized to zero hour (substrate use), 7 hr” value [2] was 0.42, the “590 nm absorbance normalized … 8 hr” value [2] was 0.44 and the “590 nm absorbance normalized … 9 hr” value [2] was 0.49. The “590 nm absorbance normalized … 10 hr” value [2] was 0.51, the “590 nm absorbance normalized to zero hour (substrate use), 1 hr” value [3] was 0.17 and the “590 nm absorbance normalized to zero hour (substrate use), 2 hr” value [3] was 0.24. For the same compound, the “590 nm absorbance normalized to zero hour (substrate use), 3 hr” value [3] was 0.28, the “590 nm absorbance normalized to zero hour (substrate use), 4 hr” value [3] was 0.30 and the “590 nm absorbance normalized to zero hour (substrate use), 5 hr” value [3] was 0.36. For the same compound, the “590 nm absorbance normalized … 6 hr” value [3] was 0.39, the “590 nm absorbance normalized to zero hour (substrate use), 7 hr” value [3] was 0.42 and the “590 nm absorbance normalized … 8 hr” value [3] was 0.44. For the same compound, the “590 nm absorbance normalized … 9 hr” value [3] was 0.49, the “590 nm absorbance normalized … 10 hr” value [3] was 0.51 and the “590 nm absorbance normalized to zero hour (substrate use), 11 hr” value [3] was 0.48.
With OC[C@H]1O[C@H](O[C@H]2O[C@H](CO)[C@@H](O)[C@H](O)[C@H]2O)[C@H](O)[C@@H](O)[C@@H]1O [D-Trehalose] the “590 nm absorbance normalized to zero hour (substrate use), 0 hr” value [1] was 1.00, the “590 nm absorbance normalized to zero hour (substrate use), 1 hr” value [1] was 1.68 and the “590 nm absorbance normalized to zero hour (substrate use), 2 hr” value [1] was 2.24. For the same compound, the “590 nm absorbance normalized to zero hour (substrate use), 3 hr” value [1] was 2.70, the “590 nm absorbance normalized to zero hour (substrate use), 4 hr” value [1] was 2.88 and the “590 nm absorbance normalized … 6 hr” value [1] was 3.69. For the same compound, the “590 nm absorbance normalized … 8 hr” value [1] was 4.74, the “590 nm absorbance normalized … 9 hr” value [1] was 5.11 and the “590 nm absorbance normalized … 10 hr” value [1] was 4.09. For the same compound, the “590 nm absorbance normalized to zero hour (substrate use), 11 hr” value [1] was 4.60, the “Substrate use, 590 nm absorbance normalized to zero hour, 0 hr” value (Control (uninfected) NHBE cells, Biolog PMM2, 0 hr) was 1.00 and the “Substrate use, 590 nm absorbance normalized to zero hour, 1 hr” value [1] was 1.68. For the same compound, the “Substrate use, 590 nm absorbance normalized to zero hour, 5 hr” value [1] was 3.48, the “Substrate use, 590 nm absorbance normalized to zero hour, 7 hr” value [1] was 4.20 and the “590 nm absorbance normalized to zero hour (substrate use), 0 hr” value [2] was 1.00. The “590 nm absorbance normalized to zero hour (substrate use), 1 hr” value [2] was 1.66, the “590 nm absorbance normalized to zero hour (substrate use), 2 hr” value [2] was 2.04 and the “590 nm absorbance normalized to zero hour (substrate use), 3 hr” value [2] was 2.20. For the same compound, the “590 nm absorbance normalized to zero hour (substrate use), 4 hr” value [2] was 2.27, the “590 nm absorbance normalized to zero hour (substrate use), 5 hr” value [2] was 2.52 and the “590 nm absorbance normalized … 6 hr” value [2] was 2.66. The “590 nm absorbance normalized to zero hour (substrate use), 7 hr” value [2] was 2.79, the “590 nm absorbance normalized … 8 hr” value [2] was 2.93 and the “590 nm absorbance normalized … 9 hr” value [2] was 3.11. For the same compound, the “590 nm absorbance normalized … 10 hr” value [2] was 3.25, the “590 nm absorbance normalized to zero hour (substrate use), 11 hr” value [2] was 3.07 and the “590 nm absorbance normalized to zero hour (substrate use), 0 hr” value [3] was 1.00. The “590 nm absorbance normalized to zero hour (substrate use), 1 hr” value [3] was 1.66, the “590 nm absorbance normalized to zero hour (substrate use), 2 hr” value [3] was 2.04 and the “590 nm absorbance normalized to zero hour (substrate use), 3 hr” value [3] was 2.20. For the same compound, the “590 nm absorbance normalized to zero hour (substrate use), 4 hr” value [3] was 2.27, the “590 nm absorbance normalized to zero hour (substrate use), 5 hr” value [3] was 2.52 and the “590 nm absorbance normalized … 6 hr” value [3] was 2.66. The “590 nm absorbance normalized to zero hour (substrate use), 7 hr” value [3] was 2.79, the “590 nm absorbance normalized … 8 hr” value [3] was 2.93 and the “590 nm absorbance normalized … 9 hr” value [3] was 3.11. For the same compound, the “590 nm absorbance normalized … 10 hr” value [3] was 3.25 and the “590 nm absorbance normalized to zero hour (substrate use), 11 hr” value [3] was 3.07.
With OC[C@H]1O[C@@H](OC[C@H]2OC(O)[C@H](O)[C@@H](O)[C@@H]2O)[C@H](O)[C@@H](O)[C@@H]1O (stereo partly shown) [Gentio-biose] the “590 nm absorbance normalized to zero hour (substrate use), 1 hr” value [1] was 1.71, the “590 nm absorbance normalized to zero hour (substrate use), 2 hr” value [1] was 2.34 and the “590 nm absorbance normalized to zero hour (substrate use), 3 hr” value [1] was 2.83. For the same compound, the “590 nm absorbance normalized to zero hour (substrate use), 4 hr” value [1] was 3.01, the “590 nm absorbance normalized … 6 hr” value [1] was 4.46 and the “590 nm absorbance normalized … 8 hr” value [1] was 4.57. The “590 nm absorbance normalized … 9 hr” value [1] was 5.20, the “590 nm absorbance normalized … 10 hr” value [1] was 5.59 and the “590 nm absorbance normalized to zero hour (substrate use), 11 hr” value [1] was 5.94. The “Substrate use, 590 nm absorbance normalized to zero hour, 1 hr” value [1] was 1.71, the “Substrate use, 590 nm absorbance normalized to zero hour, 5 hr” value [1] was 3.72 and the “Substrate use, 590 nm absorbance normalized to zero hour, 7 hr” value [1] was 4.35. For the same compound, the “590 nm absorbance normalized to zero hour (substrate use), 1 hr” value [4] was 1.23, the “590 nm absorbance normalized to zero hour (substrate use), 2 hr” value [4] was 1.38 and the “590 nm absorbance normalized to zero hour (substrate use), 3 hr” value [4] was 1.44. For the same compound, the “590 nm absorbance normalized to zero hour (substrate use), 4 hr” value [4] was 1.47, the “590 nm absorbance normalized to zero hour (substrate use), 5 hr” value [4] was 1.55 and the “590 nm absorbance normalized … 6 hr” value [4] was 1.62. The “590 nm absorbance normalized to zero hour (substrate use), 7 hr” value [4] was 1.66, the “590 nm absorbance normalized … 8 hr” value [4] was 1.72 and the “590 nm absorbance normalized … 9 hr” value [4] was 1.79. The “590 nm absorbance normalized … 10 hr” value [4] was 1.85, the “590 nm absorbance normalized to zero hour (substrate use), 11 hr” value [4] was 1.99 and the “590 nm absorbance normalized to zero hour (substrate use), 1 hr” value [3] was 1.23. The “590 nm absorbance normalized to zero hour (substrate use), 2 hr” value [3] was 1.38, the “590 nm absorbance normalized to zero hour (substrate use), 3 hr” value [3] was 1.44 and the “590 nm absorbance normalized to zero hour (substrate use), 4 hr” value [3] was 1.47. For the same compound, the “590 nm absorbance normalized to zero hour (substrate use), 5 hr” value [3] was 1.55, the “590 nm absorbance normalized … 6 hr” value [3] was 1.62 and the “590 nm absorbance normalized to zero hour (substrate use), 7 hr” value [3] was 1.66. The “590 nm absorbance normalized … 8 hr” value [3] was 1.72, the “590 nm absorbance normalized … 9 hr” value [3] was 1.79 and the “590 nm absorbance normalized … 10 hr” value [3] was 1.85. The “590 nm absorbance normalized to zero hour (substrate use), 11 hr” value [3] was 1.99.
For OCC(O)CO [Glycerol], the “590 nm absorbance normalized to zero hour (substrate use), 1 hr” value [1] was 1.36, the “590 nm absorbance normalized to zero hour (substrate use), 2 hr” value [1] was 1.42 and the “590 nm absorbance normalized to zero hour (substrate use), 3 hr” value [1] was 1.19. For the same compound, the “590 nm absorbance normalized to zero hour (substrate use), 4 hr” value [1] was 1.18, the “590 nm absorbance normalized … 6 hr” value [1] was 0.68 and the “590 nm absorbance normalized … 8 hr” value [1] was 1.04. The “590 nm absorbance normalized … 9 hr” value [1] was 1.08, the “590 nm absorbance normalized … 10 hr” value [1] was 1.04 and the “590 nm absorbance normalized to zero hour (substrate use), 11 hr” value [1] was 1.08. For the same compound, the “Substrate use, 590 nm absorbance normalized to zero hour, 1 hr” value [1] was 1.36, the “Substrate use, 590 nm absorbance normalized to zero hour, 5 hr” value [1] was 1.27 and the “Substrate use, 590 nm absorbance normalized to zero hour, 7 hr” value [1] was 1.06. For the same compound, the “Substrate use, 590 nm absorbance normalized to zero hour, 11 hr” value (Control (uninfected) NHBE cells, Biolog PMM2, 11 hr) was 1.04, the “Substrate use, 590 nm absorbance normalized to zero hour, 1 hr” value [5] was 1.04 and the “Substrate use, 590 nm absorbance normalized to zero hour, 2 hr” value (Virus (CA09, MOI 1) infected NHBE cells, Biolog PMM2, 2 hr) was 1.04. For the same compound, the “Substrate use, 590 nm absorbance normalized to zero hour, 3 hr” value (Virus (CA09, MOI 1) infected NHBE cells, Biolog PMM2, 3 hr) was 1.04, the “Substrate use, 590 nm absorbance normalized to zero hour, 4 hr” value (Virus (CA09, MOI 1) infected NHBE cells, Biolog PMM2, 4 hr) was 1.04 and the “Substrate use, 590 nm absorbance normalized to zero hour, 5 hr” value [5] was 3.55. For the same compound, the “Substrate use, 590 nm absorbance normalized to zero hour, 7 hr” value [5] was 3.91, the “590 nm absorbance normalized to zero hour (substrate use), 1 hr” value [2] was 2.05 and the “590 nm absorbance normalized to zero hour (substrate use), 2 hr” value [2] was 2.67. For the same compound, the “590 nm absorbance normalized to zero hour (substrate use), 3 hr” value [2] was 3.09, the “590 nm absorbance normalized to zero hour (substrate use), 4 hr” value [2] was 3.24 and the “590 nm absorbance normalized … 6 hr” value [2] was 3.71. For the same compound, the “590 nm absorbance normalized … 8 hr” value [2] was 4.11, the “590 nm absorbance normalized … 9 hr” value [2] was 4.51 and the “590 nm absorbance normalized … 10 hr” value [2] was 4.63. For the same compound, the “590 nm absorbance normalized to zero hour (substrate use), 11 hr” value [2] was 5.09.
